Test results as given in article PMC8678048 (Frontiers in Microbiology, 2021).
Positions of bridges follow the written chain, without caps; N, C: chain ends. Residues, ends and D or L forms follow the SMILES beside them.

Biological target: ASFV pS273R protease (African swine fever virus, UniProt Q00946)
Format: biochemical

Chain of ASFV pS273R protease (Q00946 whole entry, looked up): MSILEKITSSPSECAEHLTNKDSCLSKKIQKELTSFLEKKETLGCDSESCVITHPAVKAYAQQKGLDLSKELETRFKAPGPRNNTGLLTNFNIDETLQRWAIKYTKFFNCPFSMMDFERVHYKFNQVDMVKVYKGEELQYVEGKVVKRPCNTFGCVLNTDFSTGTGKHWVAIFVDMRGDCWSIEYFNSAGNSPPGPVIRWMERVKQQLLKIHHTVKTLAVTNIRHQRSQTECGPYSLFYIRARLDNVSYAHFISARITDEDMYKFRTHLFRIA

Compound: CC[C@H](C)[C@@H]1NC(=O)CNC(=O)[C@H](CO)NC(=O)[C@@H]2CSSC[C@@H](C(=O)N[C@@H](Cc3ccc(O)cc3)C(=O)O)NC(=O)[C@H](CCCCN)NC(=O)[C@@H]3CSSC[C@H](NC(=O)[C@H](CCC(N)=O)NC(=O)[C@H](Cc4ccc(O)cc4)NC(=O)[C@H](CCC(N)=O)NC(=O)[C@H](CC(N)=O)NC(=O)[C@H](Cc4ccccc4)NC(=O)[C@@H]4CCCN4C(=O)[C@@H](NC(=O)CNC(=O)[C@H](Cc4ccc(O)cc4)NC(=O)CN)CSSC[C@H](NC(=O)[C@H](Cc4ccc(O)cc4)NC(=O)CNC(=O)CNC(=O)[C@H](CCCCN)NC(=O)[C@H](Cc4ccc(O)cc4)NC(=O)CNC(=O)[C@H](CCCNC(=N)N)NC1=O)C(=O)N[C@@H](CCCCN)C(=O)NCC(=O)N[C@@H]([C@@H](C)O)C(=O)N[C@@H](Cc1ccccc1)C(=O)N[C@@H](CCCCN)C(=O)N[C@@H](CCC(N)=O)C(=O)N[C@@H]([C@@H](C)O)C(=O)N3)C(=O)N[C@@H](Cc1c[nH]cn1)C(=O)N[C@@H](CO)C(=O)N[C@@H](Cc1c[nH]cn1)C(=O)N2 [OPTX-1] (H-GYGCPFNQYQCHSHCSGIRGYKGGYCKGTFKQTCKCY-OH; disulfide 4-26, 11-34, 15-36 (inferred); N-terminus and C-terminus assumed)
- mode of inhibition of pS273R protease: competitive inhibitor of the pS273R protease
